Read-outs that look alike come from different tables or passages of the source.
Tests used:
[1] = system: influenza virus A/PR/8/34 (H1N1); assay: organism not typed; format: cell-based; details: 120 h
[2] = in vitro; format: cell-based; details: dog
Description: Method for cytotoxicity study: The cytotoxicity assay and antiviral activity assay of the compounds were performed in parallel, except for the absence of virus, other experimental conditions were consistent with the antiviral activity assay. After 5 days of culture, the cell viability was measured using the cell viability detection kit CCK8. Raw data were used for calculating compound cytotoxicity (CC50) (see Table 1 for results).

[3] = in vivo; parameters: species or system SD rats; details: SD, rat, iv, 0.25 mg/kg
Description: Intravenous injection: about 2 mg of Compound 11-5, Compound 11-6 and Compound 1-77 were accurately weighed out and added with appropriate amount of DMA, followed by vortex to a clean solution. An appropriate volume of 30% Solutol HS-15 aqueous solution and saline were added and vortexed, so that DMA: 30% Solutol HS-15: saline was 20:20:60 (v/v/v). The solution was filtered to give a 0.05 mg·mL^−1 pharmaceutical preparation. SD rats were given a single injection of 0.25 mg·kg^−1 of Compounds 11-5, 11-6 and 1-77 intravenously. 0.20 mL of blood was collected from the jugular vein before administration and 0.083 h, 0.25 h, 0.5 h, 1 h, 2 h, 4 h, 8 h, 12 h and 24 h after administration, and placed in an EDTA-K2 anticoagulation tube. 150 μL of whole blood was accurately pipetted immediately, and added into a test tube to which 450 μL of acetonitrile has been added to precipitate proteins, and the tube was vortexed, and placed on wet ice. It was stored in a −90˜−60° C. refrigerator for biological sample analysis. The concentration of the corresponding compound in the plasma of S-D rats was determined by LC-MS/MS analysis. The corresponding pharmacokinetic parameters were calculated using a non-compartmental model in Pharsight Phoenix 7.0.

[4] = parameters: species or system SD rats; details: SD, rat, in vivo, po, 3 mg/kg
Description: Intragastric administration: about 4 mg of Compound III-2 was accurately weighed out and added with appropriate amount of PEG400, followed by vortex to a clean solution. An appropriate volume of 30% Solutol HS-15 aqueous solution and saline were added, and followed by vortex to give a pharmaceutical preparation of a concentration of 0.3 mg·mL^−1, with PEG400: 30% Solutol HS-15: saline=2:2:6 (v/v/v). SD rats were given a single oral administration of 3.0 mg·kg^−1 of Compounds III-2, and the concentration of Compound II-6 in the plasma of S-D rats was determined before administration and 0.25 h, 0.5 h, 1 h, 2 h, 4 h, 8 h, 12 h and 24 h after administration.

[5] = system: influenza A virus (H1N1, A/WSN/33); assay: Efficacy on mice, IAV mouse infection model; format: in vivo, Female BALB/c mice; details: 15 mpk orally twice a day; for Body weight change / Survival rate: infected mice; for Body weight change: during the experiment; for Survival rate: to the predetermined experimental end point; for Mean difference of virus titer compared with the solvent group / Influenza Virus Titer in lung tissue: mice, 5th day after infection
Excerpt: Female BALB/c mice were inoculated with influenza A virus (H1N1, A/WSN/33) by intranasal administration to establish an IAV mouse infection model. The vehicle, Compound III-2 (15 mpk) or oseltamivir phosphate (15 mpk) were orally administered twice a day. Animal weight and survival status were monitored daily during the test, and on the 5th day, some animals were killed to take lung tissue for virus titer detection, and the remaining mice were used for survival rate monitoring. The in vivo anti-influenza virus efficacy of the test compound was determined by virus titer in lung tissue, mouse body weight change and survival rate.

[6] = MDCK cells, A/PR/8/34 (H1N1), 5 days, CCK8, read-out: EC50

Compound | EC50 [1, 6] | CC50 at 5 days [2] | also measured
O=C1c2c(O)c(=O)ccn2N([C@H]2c3ccccc3CSc3ccccc32)CN1C1CC2(CCC2)C1 [Compound I-1] | 0.5 nM | > 1000 nM | –
O=C1c2c(O)c(=O)ccn2N([C@@H]2c3ccccc3SCc3c2ccc(F)c3F)CN1C1CC2(CCC2)C1 [Compound I-5] | 0.44 nM | > 1000 nM | –
O=C1c2c(O)c(=O)ccn2N([C@@H]2c3ccccc3SCc3c2ccc(F)c3F)CN1CCOC1CC1 [Compound I-7] | 0.83 nM | > 1000 nM | –
O=C1c2c(O)c(=O)ccn2N([C@@H]2c3ccccc3SCc3c2ccc(F)c3F)CN1CCSC1CC1 [Compound I-8] | 0.75 nM | > 1000 nM | –
O=C1c2c(O)c(=O)ccn2N([C@H]2c3ccccc3CSc3ccccc32)CN1C1CC2(CC2)C1 [Compound I-9] | 0.4 nM | > 1000 nM | –
O=C1c2c(O)c(=O)ccn2N([C@H]2c3ccccc3CSc3ccccc32)CN1C1CC2(COC2)C1 [Compound I-10] | 0.7 nM | > 1000 nM | –
O=C1c2c(O)c(=O)ccn2N([C@@H]2c3ccccc3SCc3c2ccc(F)c3F)CN1C1CC2(CC2)C1 [Compound I-14] | 0.32 nM | > 1000 nM | –
O=C1c2c(O)c(=O)ccn2N([C@@H]2c3ccccc3SCc3cccc(F)c32)CN1C1CC2(CCC2)C1 [Compound I-21] | 0.6 nM | > 1000 nM | –
O=C1c2c(O)c(=O)ccn2N([C@@H]2c3ccccc3SCc3c2ccc(F)c3F)CN1C1C2CC1C2 (stereo partly drawn) [Compound I-65] | 0.37 nM | > 1000 nM | –
O=C1c2c(O)c(=O)ccn2N([C@@H]2c3ccccc3SCc3c2ccc(F)c3F)CN1C1C2CC1C2F (stereo partly drawn) [Compound I-66] | 0.58 nM | > 1000 nM | –
O=C1c2c(O)c(=O)ccn2N([C@H]2c3ccccc3CSc3ccccc32)CN1C12CC(C1)C2 [Compound I-69] | 0.35 nM | > 1000 nM | –
O=C1c2c(O)c(=O)ccn2N([C@@H]2c3ccccc3SCc3c2ccc(F)c3F)CN1C12CC(C1)C2 [Compound I-77] | 0.16 nM | > 1000 nM | AUC(0-t) [3]: 307 ng·h/mL; Vd [3]: 2.77 L/kg; clearance [3]: 13 mL/min/kg; half-life [3]: 2.96 h
O=C1c2c(O)c(=O)ccn2N([C@@H]2c3ccccc3SCc3c(F)cccc32)CN1C12CC(C1)C2 [Compound I-81] | 0.19 nM | > 1000 nM | –
O=C1c2c(O)c(=O)ccn2N([C@H]2c3ccc(F)cc3CSc3ccccc32)CN1C12CC(C1)C2 [Compound I-83] | 0.21 nM | > 1000 nM | –
O=C1c2c(O)c(=O)ccn2N([C@@H]2c3ccccc3SCc3cccc(F)c32)CN1C12CC(C1)C2 [Compound I-85] | 0.18 nM | > 1000 nM | –
O=C1c2c(O)c(=O)ccn2N([C@@H]2c3ccccc3SCc3cccc(Cl)c32)CN1C12CC(C1)C2 [Compound I-89] | 0.17 nM | > 1000 nM | –
O=C1c2c(O)c(=O)ccn2N([C@H]2c3ccccc3CSc3ccccc32)[C@@H]2COCC3(CC3)N12 [II-1] | – | > 1000 nM | EC50 ([1]; MDCK): 0.45 nM
O=C1c2c(O)c(=O)ccn2N([C@H]2c3ccccc3CSc3ccccc32)[C@@H]2COC3(CC3)CN12 [II-2] | 0.51 nM | > 1000 nM | –
O=C1c2c(O)c(=O)ccn2N([C@@H]2c3ccccc3SCc3c2ccc(F)c3F)[C@@H]2COCC3(CC3)N12 [II-5] | – | > 1000 nM | EC50 ([1]; MDCK): 0.22 nM; AUC(0-t) [3]: 187 ng·h/mL; Vd [3]: 3.69 L/kg; clearance [3]: 20.9 mL/min/kg; half-life [3]: 2.49 h

Compound | EC50 [1, 6] | CC50 at 5 days [2] | also measured
O=C1c2c(O)c(=O)ccn2N([C@@H]2c3ccccc3SCc3c2ccc(F)c3F)[C@@H]2COC3(CC3)CN12 [II-6] | 0.26 nM | > 1000 nM | AUC(0-t) [3]: 276 ng·h/mL; Vd [3]: 3.12 L/kg; clearance [3]: 13.6 mL/min/kg; half-life [3]: 2.97 h
O=C1c2c(O)c(=O)ccn2N([C@@H]2c3ccccc3SCc3c2ccc(F)c3F)[C@@H]2COC3(COC3)CN12 [II-7] | 0.93 nM | > 1000 nM | –
COCC1COC[C@@H]2N1C(=O)c1c(O)c(=O)ccn1N2[C@@H]1c2ccccc2SCc2c1ccc(F)c2F (stereo partly drawn) [II-8] | 0.47 nM | > 1000 nM | –
O=C1c2c(O)c(=O)ccn2N([C@@H]2c3ccccc3SCc3c(F)cccc32)[C@@H]2COCC3(CC3)N12 [II-9] | – | > 1000 nM | EC50 ([1]; MDCK): 0.28 nM
O=C1c2c(O)c(=O)ccn2N([C@@H]2c3ccccc3SCc3c(F)cccc32)[C@@H]2COC3(CC3)CN12 [II-10] | 0.24 nM | > 1000 nM | –
O=C1c2c(O)c(=O)ccn2N([C@H]2c3ccc(F)cc3CSc3ccccc32)[C@@H]2COCC3(CC3)N12 [II-13] | – | > 1000 nM | EC50 ([1]; MDCK): 0.38 nM
O=C1c2c(O)c(=O)ccn2N([C@H]2c3ccc(F)cc3CSc3ccccc32)[C@@H]2COC3(CC3)CN12 [II-14] | 0.31 nM | > 1000 nM | –
O=C1c2c(O)c(=O)ccn2N([C@@H]2c3ccccc3SCc3cccc(F)c32)[C@@H]2COCC3(CC3)N12 [II-17] | – | > 1000 nM | EC50 ([1]; MDCK): 0.26 nM
O=C1c2c(O)c(=O)ccn2N([C@@H]2c3ccccc3SCc3cccc(F)c32)[C@@H]2COC3(CC3)CN12 [II-18] | 0.28 nM | > 1000 nM | –
O=C1c2c(O)c(=O)ccn2N([C@@H]2c3ccccc3SCc3cccc(Cl)c32)[C@@H]2COC3(CC3)CN12 [II-22] | 0.36 nM | > 1000 nM | –
COCC1CN2C(=O)c3c(O)c(=O)ccn3N([C@@H]3c4ccccc4SCc4c3ccc(F)c4F)[C@@H]2CO1 (stereo partly drawn) [II-29] | 0.57 nM | > 1000 nM | –
O=C1c2c(O)c(=O)ccn2N([C@@H]2c3ccccc3SCc3c2ccc(F)c3F)[C@@H]2CC(OC3CC3)CCN12 (stereo partly drawn) [II-34] | 0.39 nM | > 1000 nM | –
C=C1CCN2C(=O)c3c(O)c(=O)ccn3N([C@@H]3c4ccccc4SCc4c3ccc(F)c4F)[C@@H]2C1 [II-65] | 0.45 nM | > 1000 nM | –
O=C1c2c(O)c(=O)ccn2N([C@@H]2c3ccccc3SCc3c2ccc(F)c3F)[C@@H]2CC=CCN12 [II-66] | 0.18 nM | > 1000 nM | –
O=C1c2c(O)c(=O)ccn2N([C@@H]2c3ccccc3SCc3c2ccc(F)c3F)[C@@H]2C/C(=C/F)CCN12 [II-67] | 0.48 nM | > 1000 nM | –
O=C1C2N(CC3CCCN13)C(=O)c1c(O)c(=O)ccn1N2[C@@H]1c2ccccc2SCc2c1ccc(F)c2F (stereo partly drawn) [II-101] | 0.94 nM | > 1000 nM | –
COC(=O)OCOc1c2n(ccc1=O)N([C@@H]1c3ccccc3SCc3c1ccc(F)c3F)[C@@H]1COC3(CC3)CN1C2=O [III-2] | – | – | AUC(0-t) [4]: 1377 ng·h/mL; Cmax [4]: 253 ng/mL; F [4]: 47.2%; T1/2 [4]: 3.32 h; Tmax [4]: 1.67 h; Body weight change [5]: remained stable; Survival rate [5]: 100%; Mean difference of virus titer compared with the solvent group [5]: 3.92 Log 10 (number of plaques per gram of lung tissue); Influenza Virus Titer in lung tissue ([5]; 15 mg/kg): 3.28 Log10 (plaques number/gram of; Influenza Virus Titer in lung tissue ([5]; listed as Compound III-2, 15 mg/kg): 3.28 ± 0.2813 Log10 (plaques number/gram of
CCOC(=O)C1=C[C@@H](OC(CC)CC)[C@H](NC(C)=O)[C@@H](N)C1 [Oseltamivir phosphate, oseltamivir phosphate, reference compound] | – | – | Body weight change [5]: remained stable; Survival rate [5]: 100%; Mean difference of virus titer compared with the solvent group [5]: 3.46 Log 10 (number of plaques per gram of lung tissue); Influenza Virus Titer in lung tissue ([5]; 15 mg/kg): 3.74 ± 0.5205 Log10 (plaques number/gram of; Influenza Virus Titer in lung tissue ([5]; listed as oseltamivir phosphate, 15 mg/kg): 3.74 Log10 (plaques number/gram of
O=C(O)[C@H]1C2CCC(CC2)[C@@H]1Nc1nc(-c2c[nH]c3ncc(F)cc23)ncc1F [VX-787, reference compound] | 1.4 nM | > 100 nM | –

Reference: patent US11247993B2, “Pyridone derivative, composition and use as antiviral drug thereof” (priority 2018, dated 2022)
